US20200289482A1, “CYSTIC FIBROSIS TRANSMEMBRANE CONDUCTANCE REGULATOR MODULATORS FOR TREATING AUTOSOMAL DOMINANT POLYCYSTIC KIDNEY DISEASE” (The Johns Hopkins University, priority 2017, published 2020)

Columns and labels:
Format in all cases: cell-based, mouse
[1] = tested on: cAMP in PN cells; experiment: Cyclic AMP enzyme immunoassay in cells; details: for increase of cAMP activity in PN cells: treating PN cells with forskolin or IBMX
Protocol: FIG. 4A, FIG. 4B, FIG. 4C, FIG. 4D, and FIG. 4E show (FIG. 4A-FIG. 4B) cAMP levels are reduced by VX-809. (FIG. 4A) cAMP levels in mouse tissue were reduced by VX-809. The kidney samples (n=6) analyzed were taken from those depicted in FIG. 1. (FIG. 4B) Confluent PN and PH cells were treated with VX-809 (10 μM) or DMSO for 16 h and then treated with forskolin (100 μM) for 30 min before the cells were harvested for the assay. Columns represent means±SEM. Statistical analysis was performed using a two-tailed Student's t-test. Each set of data is from three individual wells; Note that resting cAMP is greater in PN vs PH cells as previously shown (25). Also note that forskolin caused a large increase in cAMP. A smaller increase occurred with IBMX. However, the increase induced by forskolin alone was similar to that by IBMX plus forskolin. […] (FIG. 4C, FIG. 4D, and FIG. 4E) Adenylyl cyclase expression. (FIG. 4C) Western blot showing the expression of adenylyl cyclase (AC) 6 and AC3 in treated and control PN cells. (FIG. 4D-FIG. 4E) Columns represent means±SEM of the AC3 and AC6 expression. The data were analyzed by non-parametric t-test. The experiment was repeated four times. For all graphs, *P<0.05, **P<0.01, and ***P<0.001;
It has been shown previously in both animal and cell culture models of ADPKD that cells lacking functional PC1 have elevated cAMP levels when compared to normal (24). To assess the effect of CFTR correctors, cAMP activity was measured in PC1 conditional knockout mouse kidneys and in PN cells that were either left untreated or treated with VX-809. […] Cells were treated with forskolin, which increased cAMP levels drastically (FIG. 4B). […] Treating PN cells with forskolin or IBMX (FIG. 4B) increased the cAMP activity by ˜10-fold.
Confluent cells were treated with VX-809 (10 μM) or DMSO for 16 h before being harvested for assay. Cyclic AMP levels were measured with a direct cAMP Enzyme Immunoassay Kit (Sigma, # CA200) according to the manufacturer's protocol. The results are expressed as pmole/ml. Statistical analysis was performed using a two-tailed Student's t-test.

[2] = tested on: Hsp70; experiment: Cycloheximide chase, disappearance of Hsp70 in PN cells; details: cycloheximide 25 μM, 8 h
Protocol: (§1) FIG. 9A, FIG. 9B, FIG. 9C, FIG. 9D, FIG. 9E, FIG. 9F, FIG. 9G, and FIG. 9H show Hsp27, HSp70, and Hsp90 expression in PN cells treated with VX-809 and/or cycloheximide. (A) Pkd1 null (PN) cells were treated with VX-809 (10 μM) and/or with cycloheximide (25 μM) for indicated time points before being harvested for the assay. (FIG. 9A) Western blot showing expression of Hsp27, Hsp70, and Hsp90 in VX-809-(16 h), cycloheximide-treated, or control PN cells. ((FIG. 9B. (FIG. 9C, and (FIG. 9D) Columns represent averages±standard errors of Hsp27, Hsp70, and Hsp90 expression in cells treated with VX-809 and/or cycloheximide. ((FIG. 9E) Western blot showing expression of Hsp27, Hsp70, and Hsp90 in PN cells treated with VX-809+cycloheximide or control PN cells. ((FIG. 9F, (FIG. 9G, and (FIG. 9H) Columns represent averages±standard errors of Hsp27, Hsp70, and Hsp90 expression in cells treated only with cycloheximide or in control PN cells. Data were analyzed by non-parametric t-test. The experiments were repeated 3-5 times. *P<0.05, **P<0.01;
(§2) To gain more insight into the mechanism whereby VX-809 alters Hsp protein levels, translation was inhibited by using cycloheximide (35) and the disappearance of the three Hsps was monitored. […] Hsp 90 was reduced by approximately 25%, and Hsp27 was unchanged.

[3] = tested on: Hsp90; experiment: Cycloheximide chase, disappearance of Hsp90 in PN cells; details: cycloheximide 25 μM, 8 h
Protocol: as §1, §2

[4] = tested on: Hsp27; experiment: Cycloheximide chase, disappearance of Hsp27 in PN cells; details: cycloheximide 25 μM, 8 h
Protocol: as §1, §2

| SMILES | increase of cAMP activity in PN cells [1] [fold] | forskolin elevates cAMP activity ([1]; as restated at the end of Example 4) [fold] | steady-state level of Hsp70 after cycloheximide alone [2] | steady-state level of Hsp90 after cycloheximide alone [3] | steady-state level of Hsp27 after cycloheximide alone [4] |
| --- | --- | --- | --- | --- | --- |
| CC(C)Cn1c(=O)n(C)c(=O)c2[nH]cnc21 [IBMX, 3-isobutyl-1-methylxanthine] | ~10 |  |  |  |  |
| C=C[C@@]1(C)CC(=O)[C@]2(O)[C@@]3(C)[C@@H](O)CCC(C)(C)[C@@H]3[C@H](O)[C@H](OC(C)=O)[C@@]2(C)O1 [forskolin] | ~10 | ~500 |  |  |  |
| C[C@@H]1C[C@@H]([C@H](O)CC2CC(=O)NC(=O)C2)C(=O)[C@@H](C)C1 [cycloheximide] |  |  | unchanged over the 8 h | unchanged over the 8 h | unchanged over the 8 h |
